Results reported in the Kinase Knowledgebase extract (Sharma et al. 2016).

Legend:
[1] = target: MAPK14 (human) (UniProt Q16539); assay: LPS Induced TNF-alpha Production Inhibition (THP1 Cells)
[2] = tested on: MAPK14 (Balb/c mice); assay: LPS Induced TNF-alpha Prodcution Inhibition (BALB/c Mice); details: dose or concentration not given here

Sequence of MAPK14 (human) (Q16539 whole entry, looked up): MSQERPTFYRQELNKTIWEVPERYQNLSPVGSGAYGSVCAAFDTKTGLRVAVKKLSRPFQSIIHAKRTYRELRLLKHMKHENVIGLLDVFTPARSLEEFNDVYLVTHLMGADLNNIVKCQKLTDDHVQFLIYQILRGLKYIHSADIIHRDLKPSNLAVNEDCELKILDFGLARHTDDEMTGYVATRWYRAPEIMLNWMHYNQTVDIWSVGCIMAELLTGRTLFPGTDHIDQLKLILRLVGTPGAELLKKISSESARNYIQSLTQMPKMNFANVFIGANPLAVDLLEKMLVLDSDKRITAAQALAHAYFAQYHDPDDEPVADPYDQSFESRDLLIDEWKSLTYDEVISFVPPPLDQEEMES

Compound | IC50 [1] [nM] | inhibition [2] [%]
COn1c(-c2ccncc2)c(-c2ccc(F)cc2)c2ncccc21 | 0.46 | 75
OCCNc1cc(-c2[nH]c3nccnc3c2-c2ccc(F)cc2)ccn1 | 241 | –
N#CCCCn1c(-c2ccncc2)c(-c2ccc(F)cc2)c2nccnc21 | 8830 | –
Fc1ccc(-c2c(-c3ccncc3)n(CCN3CCCCC3)c3cccnc23)cc1 | 0.3 | –
Fc1ccc(-c2c(-c3ccncc3)n(OCCN3CCCC3)c3cccnc23)cc1 | 0.12 | –
Fc1ccc(-c2c(-c3ccncc3)n(OCCN3CCOCC3)c3cccnc23)cc1 | – | 56
Fc1ccc(-c2c(-c3ccncc3)[nH]c3nccnc23)cc1 | 1100 | –
Fc1ccc(-c2c(-c3ccncc3)[nH]c3cccnc23)cc1 | – | 68
Fc1ccc(-c2c(-c3ccncc3)oc3cccnc23)cc1 | – | 86
